Results as given in US5631401A, “Inhibitors of protein farnesyltransferase and squalene synthase” (Abbott Laboratories, priority 1995, dated 1997).

Columns and labels:
[1] = biological target: T1, Rat brain protein farnesyltransferase (Rattus norvegicus, UniProt Q02293+Q04631); assay: In vitro inhibition of protein farnesyltransferase (biotin-lamin substrate, scintillation proximity assay); format: biochemical; details: for inhibition at 10 µM: compared to uninhibited control
T1 construct: The enzyme was purified according to Reiss, Y., et al., Cell, 62: 81-88 (1990), utilizing steps one through three; from tissue; host or cells: rat brain
In short: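 Protein farnesyltransferase isolated from rat brain was purified following steps one through three of the Reiss et al. method, giving a specific activity of about 10 nmol substrate farnesylated/mg enzyme/hour. Activity was measured with a commercial Amersham scintillation proximity assay kit, using biotin-lamin as the acceptor substrate and radioactive farnesyl diphosphate as the donor.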

[2] = biological target: T2, Rat liver microsomal squalene synthase (Rattus norvegicus, UniProt Q02769); assay: In vitro inhibition of squalene synthase (rat liver microsomes, 3H-farnesyl diphosphate); format: biochemical; details: 1 μM; compared to controls with no test compound
T2 construct: Rat liver microsomes, the source of enzyme, were prepared; from tissue; host or cells: rat liver microsomes
T2 sequence (Q02769 1-416): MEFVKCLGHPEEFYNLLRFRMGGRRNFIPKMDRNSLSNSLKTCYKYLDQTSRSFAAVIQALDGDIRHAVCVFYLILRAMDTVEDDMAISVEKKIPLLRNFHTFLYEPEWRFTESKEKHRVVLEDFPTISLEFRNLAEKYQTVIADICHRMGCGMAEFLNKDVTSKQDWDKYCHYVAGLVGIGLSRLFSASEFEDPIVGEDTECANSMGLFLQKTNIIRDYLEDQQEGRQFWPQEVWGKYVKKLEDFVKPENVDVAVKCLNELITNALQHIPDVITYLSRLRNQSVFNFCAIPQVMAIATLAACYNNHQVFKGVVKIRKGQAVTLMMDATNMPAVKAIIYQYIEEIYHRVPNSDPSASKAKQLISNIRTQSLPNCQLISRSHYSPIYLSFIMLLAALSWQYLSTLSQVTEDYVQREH

## O=C(O)[C@H]1[C@H](C(=O)N(Cc2ccc(Oc3ccccc3)cc2)C2CCCCC2)[C@H](C(=O)O)[C@H]1C(=O)N(Cc1ccc(Oc2ccccc2)cc1)C1CCCCC1 [Example 98, (1α,2β,3β,4α)-1,3-Di[N-cyclohexyl-N-(4-phenoxybenzyl)aminocarbonyl]cyclobutane-2,4-dicarboxylic acid]
[1]
  inhibition at 10 µM: 31%
[2]
  inhibition at 1 µM: 55%

## CCN(Cc1ccc(Oc2ccccc2)cc1)C(=O)[C@H]1[C@H](C(=O)O)[C@H](C(=O)N(CC)Cc2ccc(Oc3ccccc3)cc2)[C@H]1C(=O)O [Example 17, (1α,2β,3β,4α)-1,3-Di(N-ethyl-N-(4-phenoxybenzyl)aminocarbonyl)cyclobutane-2,4-dicarboxylic acid]
[1]
  inhibition at 10 µM: 49%
[2]
  inhibition at 1 µM: 52%

## CCCN(CCc1ccc(Oc2ccccc2)cc1)C(=O)C1C(C(=O)O)C(C(=O)N(CCC)CCc2ccc(Oc3ccccc3)cc2)C1C(=O)O (stereo not drawn) [Example 67, (1α,2β,3β,4α)-1,3-Di[N-propyl-N-(2-(4-phenoxyphenyl)ethyl)aminocarbonyl]cyclobutane-2,4-dicarboxylic acid]
[1]; 1 μM (footnote *), read-out: % Inhibition at 1 μM (protein farnesyltransferase, values marked *)
  inhibition at 1 µM: 61%
[2]
  inhibition at 1 µM: 47%

## O=C(O)[C@H]1[C@H](C(=O)N(CCc2ccccc2)Cc2ccc(Oc3ccccc3)cc2)[C@H](C(=O)O)[C@H]1C(=O)N(CCc1ccccc1)Cc1ccc(Oc2ccccc2)cc1 [Example 78, (1α,2β,3β,4α)-1,3-Di [N-(4-phenoxybenzyl)-N-phenethylaminocarbonyl]cyclobutane-2,4-dicarboxylicacid]
[1]
  inhibition at 10 µM: 83%
[2]
  inhibition at 1 µM: 32%
